For experiment [1], the system named is neuronal-uptake of norepinephrine. Kind of experiment: inhibition of the neuronal-uptake of norepinephrine (tritium content of the hearts). It is filed as in vivo. The following applies: Mus musculus, 1 h; at 50 mg/kg oral, male mice, heart; norepinephrine-3H i.v. one hour after dosing; vs vehicle control; read-out: % Inhibition of Amine Uptake, Norepinephrine. The method, then: (§1) Int. Pharmacoldyn 225, 317-329 (1977)].
(§2) According to this procedure, male mice weighing approximately 25 grams are fasted overnight, then groups of five or more mice are dosed with the test compound or methocel vehicle at 50 mg/kg by oral route. After an interval of one hour, the mice are given an intravenous injection of a saline solution containing 0.5 μCi of norepinephrine-^3 H, 0.5 μCi of serotonin^14 C, and 1 mg/ml of ascorbic acid. The mice are then sacrificed about 15 minutes later, their hearts and spleens rinsed and weighed, and dissolved in a tissue solubilizer. The tritium content of the hearts and carbon-14 content of the spleen are determined by scintillation counting. The percent inhibition of uptake in comparison with the vehicle control group is then recorded.

Experiment [2] has as its system neuronal-uptake of serotonin. Briefly: inhibition of the neuronal-uptake of serotonin (carbon-14 content of the spleen). Format: in vivo. The following applies: Mus musculus, 1 h, at 50 mg/kg oral, male mice, serotonin-14C i.v. one hour after dosing, vs vehicle control, read-out: % Inhibition of Amine Uptake, Serotonin. The procedure: as §1, §2

The source of these data is patent US4260623A, “Hexahydro-1-arylspiro(3H-oxazolo(3,4-A)pyridine-3,4'-piperidene) antidepressants, pharmaceutical compositions thereof and method of use thereof” (Warner-Lambert Company, priority 1979, dated 1981).

What is called inhibition is the change of the read-out against control, counted positive when it falls.

Consider `c1ccc(C2OC3(CCNCC3)N3CCCCC23)cc1` (stereo not shown) [Example 2, Hexahydro-1-phenylspiro[3H-oxazolo[3,4-a]pyridine-3,4'-piperidine]], for which the results for the inhibition at 50 mg/kg in experiment [1] and in experiment [2] were 70% and 83%, respectively.

With `CN1CCC2(CC1)OC(c1ccccc1)C1CCCCN12` (stereo not shown) [Example 3, Hexahydro-1'-methyl-1-phenylspiro[3H-oxazolo[3,4-a]pyridine-3,4'-piperidine]], the inhibition at 50 mg/kg in experiment [1] and in experiment [2] was 73% throughout.

`Fc1cccc(C2OC3(CCN(Cc4ccccc4)CC3)N3CCCCC23)c1` (stereo not shown) [Example 4, hexahydro-1'-benzyl-1-(3-fluorophenyl)spiro[3H-oxazolo[3,4-a]pyridine-3,4'-piperidine]]: the inhibition at 50 mg/kg in experiment [1] worked out at 58%; in experiment [2], 79%.

For `Fc1cccc(C2OC3(CCNCC3)N3CCCCC23)c1` (stereo not shown) [Example 5, hexahydro-1-(3-fluorophenyl)spiro[3H-oxazolo[3,4-a]pyridine-3,4'-piperidine]], the figures for the inhibition at 50 mg/kg in experiment [1] and in experiment [2] were 70% and 89%, respectively.

For the compound `COc1ccccc1C1OC2(CCNCC2)N2CCCCC12` (stereo not shown) [Example 7, hexahydro-1-(2-methoxyphenyl)spiro[3H-oxazolo[3,4-a]pyridine-3,4'-piperidine]], the inhibition at 50 mg/kg is 67% in experiment [1] and 71% in experiment [2].

As for `FC(F)(F)c1cccc(C2OC3(CCNCC3)N3CCCCC23)c1` (stereo not shown) [Example 9, hexahydro-1-[3-(trifluoromethyl)phenyl]spiro[3H-oxazolo[3,4-a]pyridine-3,4'piperidine]], the values for the inhibition at 50 mg/kg in experiment [1] and in experiment [2] were 64% and 86%, respectively.

Consider `Fc1ccc(C2OC3(CCNCC3)N3CCCCC23)cc1` (stereo not shown) [Example 11, Hexahydro-1-(4-fluorophenyl)spiro[3H-oxazolo[3,4-a]pyridine-3,4'-piperidine]], for which the inhibition at 50 mg/kg was found to be 73% in experiment [1] and 89% in experiment [2].

Consider `Clc1ccc(C2OC3(CCN(Cc4ccccc4)CC3)N3CCCCC23)cc1` (stereo not shown) [Example 12, hexahydro-1'-benzyl-1-(4-chlorophenyl)spiro[3H-oxazolo[3,4-a]pyridine-3,4'-piperidine]], for which the inhibition at 50 mg/kg was found to be 59% in experiment [1] and 84% in experiment [2].

On to `CN1CCC2(CC1)OC(c1ccc(Cl)cc1)C1CCCCN12` (stereo not shown) [Example 13, hexahydro-1'-methyl-1-(4-chlorophenyl)spiro[3H-oxazolo[3,4-a]pyridine-3,4'-piperidine]], for which the results for the inhibition at 50 mg/kg in experiment [1] and in experiment [2] were 77% and 91%, respectively.

Consider `COc1ccc(C2OC3(CCNCC3)N3CCCCC23)cc1` (stereo not shown) [Example 14, Hexahydro-1-(4-methoxyphenyl)spiro[3H-oxazolo[3,4-a]pyridine-3,4'-piperidine]], for which the values for the inhibition at 50 mg/kg in experiment [1] and in experiment [2] were 57% and 89%, respectively.

As to `c1ccc(C2OC3(CCN(CC4CC4)CC3)N3CCCCC23)cc1` (stereo not shown) [Example 15, hexahydro-1'-(cyclopropylmethyl)-1-phenylspiro[3H-oxazolo[3,4-a]pyridine-3,4'-piperidine]], the inhibition at 50 mg/kg in experiment [1] was found to be 62%; in experiment [2] it was 77%.
